Data as given in the NIST ThermoML archive (doi:10.1021/je900284z).
Values joined by “and” are separate entries in the source; they are usually repeats but may differ in a detail not shown here. Identical values can stand only once.

Settings: Liquid; for viscosity: Falling or rolling sphere viscometry; for mass density: 101.33 kPa

CC(C)CCCC(C)CCCC(C)CCCCC(C)CCCC(C)CCCC(C)C (stereo not given) [2,6,10,15,19,23-hexamethyltetracosane]
Settings | viscosity
273.15 K, 100 kPa | 116 mPa·s and 116.2 mPa·s
273.15 K, 600 kPa | 121.9 mPa·s
273.15 K, 10600 kPa | 159.6 mPa·s
273.15 K, 20600 kPa | 208 mPa·s
273.15 K, 30700 kPa | 267.6 mPa·s
273.15 K, 41400 kPa | 348.4 mPa·s
273.15 K, 50500 kPa | 442.3 mPa·s
283.15 K, 100 kPa | 59.25 mPa·s and 59.27 mPa·s
283.15 K, 9600 kPa | 76.31 mPa·s
283.15 K, 19900 kPa | 97.69 mPa·s
283.15 K, 25810 kPa | 115.2 mPa·s
283.15 K, 50880 kPa | 206.5 mPa·s
283.15 K, 76760 kPa | 360.6 mPa·s
283.15 K, 100400 kPa | 573.5 mPa·s
293.15 K, 100 kPa | 35.97 mPa·s and 35.96 mPa·s
298.15 K, 100 kPa | 28.45 mPa·s [middle of 6 runs]
298.15 K, 700 kPa | 28.57 mPa·s
298.15 K, 800 kPa | 28.67 mPa·s
298.15 K, 10800 kPa | 35.77 mPa·s
298.15 K, 20600 kPa | 44.2 mPa·s
298.15 K, 26000 kPa | 49.37 mPa·s
298.15 K, 30800 kPa | 54.49 mPa·s
298.15 K, 40200 kPa | 65.84 mPa·s
298.15 K, 50100 kPa | 80.08 mPa·s
298.15 K, 50600 kPa | 81.24 mPa·s
298.15 K, 51600 kPa | 84.03 mPa·s
298.15 K, 60700 kPa | 98.21 mPa·s
298.15 K, 70700 kPa | 118.8 mPa·s
298.15 K, 74700 kPa | 129.5 mPa·s
298.15 K, 75800 kPa | 130.3 mPa·s
298.15 K, 80500 kPa | 142.3 mPa·s
298.15 K, 98800 kPa | 200.7 mPa·s
298.15 K, 100100 kPa | 201.8 mPa·s
298.15 K, 125900 kPa | 315.8 mPa·s
298.15 K, 150000 kPa | 465.7 mPa·s
298.15 K, 150100 kPa | 473.5 mPa·s
303.15 K, 100 kPa | 22.58 mPa·s and 22.86 mPa·s and 22.84 mPa·s
313.15 K, 100 kPa | 15.16 mPa·s [middle of 6 runs]
313.15 K, 800 kPa | 15.15 mPa·s
313.15 K, 10700 kPa | 18.58 mPa·s
313.15 K, 20600 kPa | 22.64 mPa·s
313.15 K, 30700 kPa | 27.33 mPa·s
313.15 K, 40500 kPa | 32.69 mPa·s
313.15 K, 50200 kPa | 39.01 mPa·s
313.15 K, 60600 kPa | 46.76 mPa·s
313.15 K, 70600 kPa | 55.53 mPa·s
313.15 K, 80600 kPa | 65.68 mPa·s
313.15 K, 91700 kPa | 78.58 mPa·s
313.15 K, 112400 kPa | 108.9 mPa·s
313.15 K, 131700 kPa | 145.3 mPa·s
313.15 K, 151600 kPa | 192.8 mPa·s
313.15 K, 151900 kPa | 196.8 mPa·s
313.15 K, 168600 kPa | 250 mPa·s
313.15 K, 175400 kPa | 276.7 mPa·s
313.15 K, 190000 kPa | 336.9 mPa·s
313.15 K, 190100 kPa | 340.1 mPa·s
313.15 K, 199800 kPa | 379.2 mPa·s
313.15 K, 210400 kPa | 433.8 mPa·s
313.15 K, 227900 kPa | 549.9 mPa·s
313.15 K, 241700 kPa | 669.3 mPa·s
313.15 K, 261500 kPa | 863.8 mPa·s
313.15 K, 279800 kPa | 1065 mPa·s
313.15 K, 300500 kPa | 1395 mPa·s
323.15 K, 100 kPa | 10.73 mPa·s and 10.71 mPa·s and 10.69 mPa·s
333.15 K, 100 kPa | 7.856 mPa·s and 7.861 mPa·s
338.15 K, 100 kPa | 6.785 mPa·s
338.15 K, 9700 kPa | 8.064 mPa·s
338.15 K, 22100 kPa | 9.958 mPa·s
338.15 K, 30100 kPa | 11.36 mPa·s
338.15 K, 40600 kPa | 13.4 mPa·s
338.15 K, 40800 kPa | 13.45 mPa·s
338.15 K, 50300 kPa | 15.55 mPa·s
338.15 K, 60000 kPa | 17.98 mPa·s
338.15 K, 60700 kPa | 17.92 mPa·s
338.15 K, 80700 kPa | 24.24 mPa·s
338.15 K, 100600 kPa | 32.02 mPa·s
338.15 K, 120400 kPa | 41.62 mPa·s
338.15 K, 140400 kPa | 53.67 mPa·s
338.15 K, 160300 kPa | 69.03 mPa·s
338.15 K, 175300 kPa | 82.43 mPa·s
338.15 K, 199800 kPa | 111 mPa·s
338.15 K, 226500 kPa | 150.6 mPa·s
338.15 K, 246000 kPa | 184.6 mPa·s
338.15 K, 255100 kPa | 201.5 mPa·s
338.15 K, 274800 kPa | 252.5 mPa·s
338.15 K, 275200 kPa | 246.9 mPa·s
338.15 K, 300000 kPa | 321.5 mPa·s
338.15 K, 303600 kPa | 337.4 mPa·s
338.15 K, 324900 kPa | 416.3 mPa·s
338.15 K, 350600 kPa | 540.2 mPa·s
338.15 K, 373000 kPa | 677.2 mPa·s
343.15 K, 100 kPa | 5.979 mPa·s [middle of 4 runs]
348.15 K, 100 kPa | 5.281 mPa·s and 5.28 mPa·s and 5.248 mPa·s
348.15 K, 9700 kPa | 6.195 mPa·s
348.15 K, 20600 kPa | 7.41 mPa·s
348.15 K, 30800 kPa | 8.689 mPa·s
348.15 K, 40900 kPa | 10.14 mPa·s
348.15 K, 50400 kPa | 11.63 mPa·s
348.15 K, 60400 kPa | 13.25 mPa·s
348.15 K, 60500 kPa | 13.45 mPa·s
348.15 K, 70300 kPa | 15.23 mPa·s
348.15 K, 70900 kPa | 15.5 mPa·s
348.15 K, 80100 kPa | 17.89 mPa·s
348.15 K, 80300 kPa | 17.39 mPa·s
348.15 K, 90300 kPa | 19.95 mPa·s
348.15 K, 90600 kPa | 20.48 mPa·s
348.15 K, 100100 kPa | 22.65 mPa·s
348.15 K, 100800 kPa | 23.18 mPa·s
348.15 K, 200500 kPa | 71.69 mPa·s
348.15 K, 225500 kPa | 93.81 mPa·s
348.15 K, 250300 kPa | 121.8 mPa·s
348.15 K, 275300 kPa | 157.1 mPa·s
348.15 K, 300000 kPa | 201.5 mPa·s
348.15 K, 319700 kPa | 244.4 mPa·s
348.15 K, 339600 kPa | 295.8 mPa·s
348.15 K, 359000 kPa | 356.2 mPa·s
348.15 K, 378600 kPa | 428.5 mPa·s
353.15 K, 100 kPa | 4.692 mPa·s and 4.695 mPa·s

Settings | mass density [kg/m3]
273.15 K | 821.58
283.15 K | 815.16
288.15 K | 811.95
293.15 K | 808.74
298.15 K | 805.55
303.15 K | 802.34
313.15 K | 795.93
323.15 K | 789.53
333.15 K | 783.14
343.15 K | 776.77
353.15 K | 770.42
363.15 K | 764.06
